Key:
[1] = test system: Cocklebur (Xanthium strumarium); test: Postemergence herbicidal activity, greenhouse spray; assay type: in vivo; conditions: Xanthium strumarium, post-emergence, 336 h, visual score after 2 weeks, read-out: Post-emergent % control XANST; for pest or weed control at 250 ppm / pest or weed control at 500 ppm: Table 1; for pest or weed control at 250 ppm: rate 250 ppm; for pest or weed control at 500 ppm: rate 500 ppm, 0 no injury, 100 complete kill; for pest or weed control at 125 ppm: Table 2, rate 125 ppm
Outline: (§1)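 Plants grown 7-21 days in a greenhouse (~15 hr photoperiod, about 23-29° C day/22-28° C night) and treated at the first or second true leaf stage. Compounds in acetone:DMSO 97:3 were diluted into an aqueous acetone/isopropyl alcohol/crop oil/Triton X-155 carrier and sprayed to thorough coverage. Controls received carrier alone.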

[2] = test system: Barnyardgrass (Echinochloa crus-galli); test: as above; assay type: in vivo; conditions: Echinochloa crus-galli, post-emergence, 336 h, visual score after 2 weeks, read-out: Post-emergent % control ECHCG; for pest or weed control at 250 ppm / pest or weed control at 500 ppm: Table 1; for pest or weed control at 250 ppm: rate 250 ppm; for pest or weed control at 500 ppm: rate 500 ppm; for pest or weed control at 125 ppm: Table 2, rate 125 ppm
Outline: as §1

[3] = test system: Lambsquarter (Chenopodium album); test: as above; assay type: in vivo; conditions: Chenopodium album, post-emergence, 336 h, visual score after 2 weeks, read-out: Post-emergent % control CHEAL; for pest or weed control at 250 ppm / pest or weed control at 500 ppm: Table 1; for pest or weed control at 250 ppm: rate 250 ppm; for pest or weed control at 500 ppm: rate 500 ppm; for pest or weed control at 125 ppm: Table 2, rate 125 ppm
Outline: as §1

[4] = test system: Yellow nutsedge (Cyperus esculentus); test: as above; assay type: in vivo; conditions: Cyperus, post-emergence, 336 h, visual score after 2 weeks, read-out: Post-emergent % control CYPES; for pest or weed control at 250 ppm / pest or weed control at 500 ppm: Table 1; for pest or weed control at 250 ppm: rate 250 ppm; for pest or weed control at 500 ppm: rate 500 ppm; for pest or weed control at 125 ppm: Table 2, rate 125 ppm
Outline: as §1

[5] = test system: Crabgrass(large) (Digitaria sanguinalis); test: Preemergence herbicidal activity, soil spray; assay type: in vivo; conditions: Digitaria sanguinalis, pre-emergence, 504 h, Table 5, visual score after 3 weeks, read-out: Pre-emergent % control DIGSA; for pest or weed control at 560 ppm: rate 560 ppm; for pest or weed control at 140 ppm: rate 140 ppm
Outline: (§2)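 Soil spray, preemergence: loam/sand 70:30 (pH ~8.1, OM ~1.5%) → seeded pots treated on surface; compound in acetone/DMSO 97:3, serially diluted into water/Tween 155 (99.9:0.1). Controls got aqueous carrier only. Greenhouse: ~15 h light, 23-29° C day / 22-28° C night.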

[6] = test system: Lambsquarter (Chenopodium album); test: Preemergence herbicidal activity, soil spray; assay type: in vivo; conditions: Chenopodium album, pre-emergence, 504 h, Table 5, visual score after 3 weeks, read-out: Pre-emergent % control CHEAL; for pest or weed control at 560 ppm: rate 560 ppm, 100 complete kill or no germination; for pest or weed control at 140 ppm: rate 140 ppm
Outline: as §2

[7] = test system: Pigweed (redroot) (Amaranthus retroflexus); test: Preemergence herbicidal activity, soil spray; assay type: in vivo; conditions: Amaranthus retroflexus, pre-emergence, 504 h, Table 5, visual score after 3 weeks, read-out: Pre-emergent % control AMARE; for pest or weed control at 560 ppm: rate 560 ppm; for pest or weed control at 140 ppm: rate 140 ppm
Outline: as §2

[8] = test system: Giant Foxtail (Setaria faberi); test: Preemergence herbicidal activity, soil spray; assay type: in vivo; conditions: Setaria faberi, pre-emergence, 504 h, Table 5, visual score after 3 weeks, read-out: Pre-emergent % control SETFA; for pest or weed control at 560 ppm: rate 560 ppm; for pest or weed control at 140 ppm: rate 140 ppm
Outline: as §2

With `COC(=O)c1nc(-c2ccc(OC)cc2)cc(N)c1Cl` [Compound 17, Methyl 4-amino-3-chloro-6-(4-methoxyphenyl)pyridine-2-carboxylate] the pest or weed control at 250 ppm [1] was 100%, the pest or weed control at 250 ppm [2] was 70% and the pest or weed control at 250 ppm [3] was 100%. The pest or weed control at 250 ppm [4] was 70%, the pest or weed control at 560 ppm [5] was 100% and the pest or weed control at 560 ppm [6] was 100%. It also gave a pest or weed control at 560 ppm [7] of 100%, a pest or weed control at 560 ppm [8] of 100% and a melting point of 148 to 149 °C.

With `COc1ccc(-c2cc(N)c(Cl)c(C(=O)O)n2)cc1` [Compound 141, 4-Amino-3-chloro-6-(4-methoxyphenyl)pyridine-2-carboxylic acid] the pest or weed control at 250 ppm [1] was 100%, the pest or weed control at 250 ppm [2] was 80% and the pest or weed control at 250 ppm [3] was 100%. The pest or weed control at 250 ppm [4] was 10%, the pest or weed control at 560 ppm [5] was 60% and the pest or weed control at 560 ppm [6] was 100%. The pest or weed control at 560 ppm [7] was 98%, the pest or weed control at 560 ppm [8] was 70% and the melting point was 192 °C.

Molecule `COC(=O)c1nc(-c2ccc(Cl)cc2)c(Cl)c(N)c1Cl` [Compound 86, Methyl 4-amino-3,5-dichloro-6-(4-chlorophenyl)pyridine-2-carboxylate] has a pest or weed control at 500 ppm [1] of 100%, a pest or weed control at 125 ppm [1] of 100% and a pest or weed control at 500 ppm [2] of 90%. The pest or weed control at 125 ppm [2] was 80%, the pest or weed control at 500 ppm [3] was 100% and the pest or weed control at 125 ppm [3] was 100%. The pest or weed control at 500 ppm [4] was 90%, the pest or weed control at 125 ppm [4] was 100% and the pest or weed control at 560 ppm [5] was 40%. The pest or weed control at 560 ppm [6] was 100%, the pest or weed control at 560 ppm [7] was 100% and the pest or weed control at 560 ppm [8] was 40%. It also gave a melting point of 160 to 162 °C.

For `COC(=O)c1nc(-c2ccc(F)c(Cl)c2)cc(N)c1Cl` [Compound 39, Methyl 4-amino-3-chloro-6-(3-chloro-4-fluorophenyl)pyridine-2-carboxylate], the pest or weed control at 500 ppm [1] was 100%, the pest or weed control at 500 ppm [2] was 95% and the pest or weed control at 500 ppm [3] was 100%. For the same molecule, the pest or weed control at 500 ppm [4] was 99%, the pest or weed control at 140 ppm [5] was 95% and the pest or weed control at 140 ppm [6] was 95%. It also gave a pest or weed control at 140 ppm [7] of 100%, a pest or weed control at 140 ppm [8] of 75% and a melting point of 169 to 170 °C.

`Nc1cc(-c2ccc(Cl)c(F)c2)nc(C(=O)O)c1Cl` [Compound 181, 4-Amino-3-chloro-6-(4-chloro-3-fluorophenyl)pyridine-2-carboxylic acid] showed a pest or weed control at 500 ppm [1] of 100%, a pest or weed control at 125 ppm [1] of 100% and a pest or weed control at 500 ppm [2] of 100%. The pest or weed control at 125 ppm [2] was 70%, the pest or weed control at 500 ppm [3] was 100% and the pest or weed control at 125 ppm [3] was 100%. The pest or weed control at 500 ppm [4] was 100%, the pest or weed control at 125 ppm [4] was 85% and the pest or weed control at 140 ppm [5] was 100%. It also gave a pest or weed control at 140 ppm [6] of 100%, a pest or weed control at 140 ppm [7] of 100% and a pest or weed control at 140 ppm [8] of 100%. The melting point was 156 to 157 °C.

Molecule `Cc1ccc(-c2cc(N)c(Cl)c(C(=O)O)n2)c(F)c1` [Compound 158, 4-Amino-3-chloro-6-(2-fluoro-4-methylphenyl)pyridine-2-carboxylic acid] has a pest or weed control at 500 ppm [1] of 100%, a pest or weed control at 500 ppm [2] of 95% and a pest or weed control at 500 ppm [3] of 100%. The pest or weed control at 500 ppm [4] was 70%, the pest or weed control at 140 ppm [5] was 98% and the pest or weed control at 140 ppm [6] was 100%. The pest or weed control at 140 ppm [7] was 100%, the pest or weed control at 140 ppm [8] was 100% and the melting point was 187 to 189 °C.

Molecule `COc1ccccc1-c1cc(N)c(Cl)c(C(=O)O)n1` [Compound 139, 4-Amino-3-chloro-6-(2-methoxyphenyl)pyridine-2-carboxylic acid] has a pest or weed control at 250 ppm [1] of 100%, a pest or weed control at 250 ppm [2] of 70% and a pest or weed control at 250 ppm [3] of 95%. The pest or weed control at 250 ppm [4] was 30%, the pest or weed control at 560 ppm [5] was 100% and the pest or weed control at 560 ppm [6] was 100%. The pest or weed control at 560 ppm [7] was 100%, the pest or weed control at 560 ppm [8] was 100% and the melting point was 177 to 179 °C.

From patent US6784137B2, “6-aryl-4-aminopicolinates and their use as herbicides” (Dow AgroSciences LLC, priority 2001, dated 2004)
